The text below walks through data of US11952365B2, “Anti-viral compounds” (Aligos Therapeutics, Inc., priority 2020, dated 2024).

Series [1] relates to human beta-coronavirus OC43. The series can be described thus: microbe, parasite or virus in culture. The format is cell-based. The conditions noted are these: Betacoronavirus 1, OC43, HeLa, 144 h, OC43 in HeLa cells, 6 days at 33° C., class symbols; read-out: EC50.
The next series concerns the target HRV3C (Human rhinovirus 14, UniProt P03303). The series can be described thus: HRV3C protease assay (duplex, SAMDI-MS). The format is biochemical, HRV. In outline: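 Compounds are preincubated 30 min with the protease pair before substrate addition, and cleavage proceeds 30 min at room temperature. Product peptides are measured by SAMDI-MS relative to internal standards, with IC50 obtained from a four-parameter fit.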

The next series has as its target 3CLpro (Severe acute respiratory syndrome coronavirus 2, UniProt P0DTD1). The series can be described thus: SARS-CoV-2 3CLpro protease assay (duplex, SAMDI-MS). Type of series: biochemical. The arrangement: For the duplex assay, 3CLpro and HRV3C was added. The note with it: 3CLpro, 30 mins preincubation, class symbols; read-out: SARS-Cov-2 IC50.
The nature of series [2]: in vitro. The conditions noted are these: African green monkey, VeroE6 + CP (CC50), Vero E6-eGFP cells with CP-100356, absence of virus, MTS.
A short description of series [3]: in vitro. The note with it: human.
For the next series, the target named is T1, human cathepsin L (Homo sapiens, UniProt P07711).
T1 construct: purchased R&D Systems
The series can be described thus: cathepsin L assay. Type of series: biochemical. The note with it: 10 pM human cathepsin L, Z-FR-AMC 2 μM, class symbols. In outline: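 Reactions began by adding 2 μM (final) Z-FR-AMC substrate to 10 pM human cathepsin L that had been preincubated 30 min with inhibitor. Kinetic AMC fluorescence at 355/460 nm over 30 min at 2-min intervals; four-parameter fitting gave IC50 values.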

In series [4] the test system is SARS-CoV-2-GHB-03021/2020. Nature of the series: microbe, parasite or virus in culture. Type of series: cell-based. The conditions noted are these: Severe acute respiratory syndrome coronavirus 2, Vero C1008, 96 h; read-out: VeroE6 + CP (EC50).
The test system of series [5] is SARS-CoV-2-GHB-03021/2020. The series can be described thus: SARS-CoV-2 Infection Model in Huh7 Cells. Type of series: cell-based. The note with it: Severe acute respiratory syndrome coronavirus 2, Huh-7, 96 h, SARS-CoV-2, day 4 p.i., MTS, class symbols.
A short description of series [6]: Cytotoxicity plates without OC43 virus (cell-titer-glo). The note with it: human; HeLa cells without OC43 virus, class symbols. Type of series: cell-based, human. The essentials:
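Run as a virus-free counterpart of the OC43 cytopathic-effect assay. Attached HeLa cells received compound dilutions in EMEM with 2% FBS and were kept 6 days at 33 °C. Cell viability was then measured by CellTiter-Glo luminescence.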

Where [7] appears, read: HRV3C, 30 mins preincubation, class symbols, read-out: HRV IC50.
[8] abbreviates: HRV3C, 30 mins preincubation, bound, read-out: HRV IC50.

Like-named read-outs stand apart in the source and are kept apart here.

By EC50 is commonly meant the midpoint of the concentration-response curve. For orientation: IC50 means the concentration at which inhibition is half-maximal. Regarding `COc1cccc2[nH]c(C(=O)N3C[C@@H]4CCC[C@@H]4[C@H]3C(=O)NC(C[C@@H]3CCCNC3=O)C(=O)C(=O)NC3CC3)cc12` (stereo partly drawn) [Compound 55, 3-{[(1S,3aR,6aS)-2-(4-methoxy-1H-indole-2-carbonyl)-hexahydro-1H-cyclopenta[c]pyrrol-1-yl]formamido}-N-cyclopropyl-2-oxo-4-[(3S)-2-oxopiperidin-3-yl]butanamide], the values for the EC50 in series [1], in series [4] and in series [5] were 0.1 to 1 µM, 1 to 10 µM and 1 to 10 µM, respectively. For the same molecule, the IC50 was 0.02 to 0.2 µM on HRV3C (setting [7]), < 0.02 µM at 3CLpro and ≥ 10 µM against human cathepsin L. The CC50 in “in vitro [2]” (numeric bounds) and in “in vitro [3]” was > 100 µM in each case. In addition, in series [6], the CC50 at 6 days is > 10 µM.

On to `O=C1NCCC[C@H]1C[C@H](NC(=O)[C@@H]1[C@H]2CCC[C@H]2CN1C(=O)c1cc2ccccc2[nH]1)C(O)S(=O)(=O)O` (stereo partly drawn) [Compound 58, sodium (2S)-2-{[(1S,3aR,6aS)-2-(1H-indole-2-carbonyl)-hexahydro-1H-cyclopenta[c]pyrrol-1-yl]formamido}-1-hydroxy-3-[(3S)-2-oxopiperidin-3-yl]propane-1-sulfonate], for which the values for the EC50 in series [1], in series [4] and in series [5] were 0.1 to 1 µM, < 1 µM and < 1 µM, respectively. Moreover, the IC50 is 0.02 to 0.2 µM at HRV3C (HRV IC50, HRV3C, 30 mins preincubation, class symbols); < 0.02 µM on 3CLpro; 1 to 10 µM on human cathepsin L. The CC50 in “in vitro [2]” (numeric bounds) and in the series “in vitro [3]” was > 100 µM each time. The CC50 at 6 days in series [6] is > 10 µM.

For the molecule `O=C1NCC[C@H]1C[C@H](NC(=O)[C@@H]1[C@H]2CCC[C@H]2CN1C(=O)c1cc2c(Cl)cccc2[nH]1)C(=O)CO` [Compound 60, (1S,3aR,6aS)-2-(4-chloro-1H-indole-2-carbonyl)-N-[(2S)-4-hydroxy-3-oxo-1-[(3S)-2-oxopyrrolidin-3-yl]butan-2-yl]-hexahydro-1H-cyclopenta[c]pyrrole-1-carboxamide], the figures for the EC50 in series [1], in series [4] and in series [5] were < 0.1 µM, < 1 µM and < 1 µM, respectively. Also, the IC50 on HRV3C (setting [8]) is > 10 µM; at 3CLpro it was < 0.02 µM; against human cathepsin L it was ≥ 10 µM. The CC50 in the series “in vitro [2]” (class symbols) was > 10 µM; in “in vitro [3]” it was > 100 µM. Further, the CC50 at 6 days in [6] was > 10 µM.

For `O=C1NCC[C@H]1C[C@H](NC(=O)[C@@H]1[C@H]2CCC[C@H]2CN1C(=O)c1cc2c(Cl)cccc2[nH]1)C(=O)COCc1ccccc1` [Compound 60A, (1S,3aR,6aS)—N-[(2S)-4-(benzyloxy)-3-oxo-1-[(3S)-2-oxopyrrolidin-3-yl]butan-2-yl]-2-(4-chloro-1H-indole-2-carbonyl)-hexahydro-1H-cyclopenta[c]pyrrole-1-carboxamide], the EC50 in [1] is < 0.1 µM; in series [4], 1 to 10 µM; in series [5], 1 to 10 µM. Further, the results for the IC50 on HRV3C (setting [8]), at 3CLpro and on human cathepsin L were > 10 µM, 0.2 to 2 µM and ≥ 10 µM, respectively. The CC50 in the series “in vitro [2]” (numeric bounds) was > 100 µM; in the series “in vitro [3]”, 1 to 10 µM. Also, the CC50 at 6 days in [6] was > 10 µM.

In the case of `COc1cccc2[nH]c(C(=O)N3C[C@@H]4CCC[C@@H]4[C@H]3C(=O)N[C@@H](C[C@@H]3CCNC3=O)C(=O)COP(=O)(O)O)cc12` [Compound 61, (3S)-3-1{[(1S,3aR,6aS)-2-(4-methoxy-1H-indole-2-carbonyl)-hexahydro-1H-cyclopenta[c]pyrrol-1-yl]formamido}-2-oxo-4-[(3S)-2-oxopyrrolidin-3-yl]butoxyphosphonic acid], the EC50 in series [1] was in the range of 0.1 to 1 µM; in series [4], 1 to 10 µM; in series [5], 1 to 10 µM. Further, the IC50 on HRV3C (setting [8]) was > 10 µM; on 3CLpro, 0.2 to 2 µM; on human cathepsin L, ≥ 10 µM. Moreover, the CC50 in “in vitro [2]” (numeric bounds) and in “in vitro [3]” was > 100 µM in each case. In series [6], the CC50 at 6 days was > 10 µM.

Turning to `COc1cccc2[nH]c(C(=O)N3C[C@@H]4CCC[C@@H]4[C@H]3C(=O)NC(C[C@@H]3CCNC3=O)C(=O)C(C)O)cc12` (stereo partly drawn) [Compound 62, (1S,3aR,6aS)—N-(4-hydroxy-3-oxo-1-((S)-2-oxopyrrolidin-3-yl)pentan-2-yl)-2-(4-methoxy-1H-indole-2-carbonyl)octahydrocyclopenta[c]pyrrole-1-carboxamide], the EC50 in series [1] is 1 to 10 µM; in series [4], 10 to 100 µM; in series [5], 10 to 100 µM. Also, the IC50 on HRV3C (setting [8]) was > 10 µM; on 3CLpro it was 0.2 to 2 µM; at human cathepsin L, ≥ 10 µM. For the same molecule, the CC50 in “in vitro [2]” (class symbols) was > 10 µM; in the series “in vitro [3]”, > 100 µM. Further, the CC50 at 6 days in series [6] is > 10 µM.

With `O=C1NCC[C@H]1C[C@H](NC(=O)[C@@H]1[C@H]2CCC[C@H]2CN1C(=O)c1cc2c(C(F)(F)F)cccc2[nH]1)C(=O)CO` [Compound 63, (1S,3aR,6aS)—N-[(2S)-4-hydroxy-3-oxo-1-[(3S)-2-oxopyrrolidin-3-yl]butan-2-yl]-2-[4-(trifluoromethyl)-1H-indole-2-carbonyl]-hexahydro-1H-cyclopenta[c]pyrrole-1-carboxamide], the EC50 in series [1] was 0.1 to 1 µM; in [4], < 1 µM; in [5] it was < 1 µM. The IC50 on HRV3C (setting [8]) was > 10 µM; at 3CLpro, 0.02 to 0.2 µM; at human cathepsin L, ≥ 10 µM. The CC50 in “in vitro [2]” (class symbols) and in “in vitro [3]” was > 10 µM each time. In addition, the CC50 at 6 days in series [6] is > 10 µM.

Consider `O=C1NCC[C@H]1C[C@H](NC(=O)[C@@H]1[C@H]2CCC[C@H]2CN1C(=O)c1cc2c(OC(F)(F)F)cccc2[nH]1)C(=O)CO` [Compound 64, (1S,3aR,6aS)—N-[(2S)-4-hydroxy-3-oxo-1-[(3S)-2-oxopyrrolidin-3-yl]butan-2-yl]-2-[4-(trifluoromethoxy)-1H-indole-2-carbonyl]-hexahydro-1H-cyclopenta[c]pyrrole-1-carboxamide], for which the values for the EC50 in [1], in series [4] and in series [5] were < 0.1 µM, < 1 µM and < 1 µM, respectively. The IC50 was > 10 µM at HRV3C (setting [8]), 0.02 to 0.2 µM at 3CLpro and ≥ 10 µM against human cathepsin L. Besides, the CC50 in “in vitro [2]” (class symbols) and in “in vitro [3]” was > 10 µM throughout. The CC50 at 6 days in [6] is > 10 µM.

For `COc1ccc(F)c2[nH]c(C(=O)N3C[C@@H]4CCC[C@@H]4[C@H]3C(=O)N[C@@H](C[C@@H]3CCNC3=O)C(=O)CO)cc12` [Compound 65, (1S,3aR,6aS)-2-(7-fluoro-4-methoxy-1H-indole-2-carbonyl)-N-[(2S)-4-hydroxy-3-oxo-1-[(3S)-2-oxopyrrolidin-3-yl]butan-2-yl]-hexahydro-1H-cyclopenta[c]pyrrole-1-carboxamide], the EC50 in series [1] was 0.1 to 1 µM; in [4], < 1 µM; in series [5], < 1 µM. Moreover, the IC50 is 0.2 to 2 µM at HRV3C (setting [7]), < 0.02 µM on 3CLpro and ≥ 10 µM against human cathepsin L. The CC50 in the series “in vitro [2]” (class symbols) was > 10 µM; in the series “in vitro [3]”, > 100 µM. For the same molecule, the CC50 at 6 days in series [6] was > 10 µM.

For the molecule `COc1cccc2[nH]c(C(=O)N3C[C@@H]4CCC[C@@H]4[C@H]3C(=O)N[C@@H](C[C@H]3CC(C)(C)NC3=O)C(=O)CO)cc12` [Compound 70_2], the EC50 in [1] was 1 to 10 µM; in [4], 10 to 100 µM; in series [5], 10 to 100 µM. The IC50 at HRV3C (HRV3C, printed bound without unit, read-out: HRV IC50) is > 10 µM; on 3CLpro, 0.2 to 2 µM; on human cathepsin L, ≥ 10 µM. For the same molecule, the CC50 in “in vitro [2]” (numeric bounds) and in the series “in vitro [3]” was > 50 µM each time. The CC50 at 6 days in [6] was > 10 µM.
